Patent US6936726B2, “Flavanol and cysteamine conjugates” (Consejo Superior de Investigaciones Cientificas, priority 2000, dated 2005)

assay: DPPH (1,1-diphenyl-2-picrylhydracil) antioxidant/antiradical power assay; conditions: initial DPPH• around 60 μM; absorbance at 517 nm; calculated from the curves of FIG. 3
Experimental: FIG. 3. Antioxidant efficacy of phenolic compounds in the DPPH assay. The absorbance (A) at 517 nm is a measure of the amount of free radical remaining in solution. (1−A/A0)×100 represents the percentage of DPPH that has reacted with the antioxidant. The amount of antioxidant expressed as micromoles per micromole of initial DPPH• to correct the possible day to day variation in the amount of initial DPPH• The initial concentration of DPPH• is calculated from the absorbance (A) and a calibration line. Each point represents the mean of three determinations.
The new molecules are potent antioxidants with an excellent capacity to capture free radicals. The conjugates are more efficient than Trolox (water-soluble analogue of Vitamin E) in the DPPH assay (1,1-diphenyl-2-picrylhydracil) [Brand-Williams, W., Cuvelier, M. E., Berset, C., Lebensm.-Wiss. u.-Technol., 28, 25-30 (1995)]. The conjugates are also more efficient than the corresponding non-derived species.
The new pure products are strong antioxidants/capturers of free radicals. FIG. 3 presents the results of the DPPH test (1,1-diphenyl-2-pycrylhydracil). The values of EC50 (effective concentration 50) are calculated from the curves. EC50 is the amount of antioxidant required to reduce the initial concentration to half (around 60 μM) of DPPH•. This amount is expressed as micromoles antioxidant/micromoles initial DPPH•. The EC50 values for compounds relevant to the present invention are: Trolox (water-soluble analogue of Vitamin E), 0.26; (−)-epicatechine, 0.19, 4ξ-(2-aminoethylthio)epicatechine I, 0.11; 4ξ-(2-aminoethylthio)epicatechinegalate III, 0.11.

| Compound | EC50 (amount of antioxidant required to reduce the initial concentration of DPPH• to half) |
| --- | --- |
| NCCSC1c2c(O)cc(O)cc2O[C@H](c2ccc(O)c(O)c2)[C@H]1O (stereo partly shown) [I, 4ξ-(2-aminoethylthio)epicatechine] | 0.11 micromoles antioxidant/micromoles initial DPPH• |
| NCCSC1c2c(O)cc(O)cc2O[C@H](c2ccc(O)c(O)c2)[C@H]1OC(=O)c1cc(O)c(O)c(O)c1 (stereo partly shown) [III, 4ξ-(2-aminoethylthio)epicatechinegalate] | 0.11 micromoles antioxidant/micromoles initial DPPH• |
| Cc1c(C)c2c(c(C)c1O)CCC(C)(C(=O)O)O2 (stereo not shown) [Trolox] | 0.26 micromoles antioxidant/micromoles initial DPPH• |
| (−)-epicatechine | 0.19 micromoles antioxidant/micromoles initial DPPH• |
